Source: patent publication US9326506B2, “Preparation method, agricultural composition and applications of natural brassinolide analogs” (CHENGDU NEWSUN CROPSCIENCE CO., LTD, priority 2012, dated 2016)

System: rice
Assay: Low temperature assay on rice seedlings
Type: in vivo
Method: According to a low temperature assay, we measured parameters including plant height, number of leaf, area of leaf, number of tiller, weight of root at low temperature to completely determine effects of the natural brassinolide analogues on the resistance to low temperature of a plant.
The natural brassinolide analogues, BR1, BR2, BR3, BR4, BR5 and BR6, used herein, were those prepared by the method of Example 1. Respectively the analogues were dissolved into 95% (V/V) ethanol solution, and then diluted with pure water to 1 mg/L, 0.1 mg/L, 0.01 mg/L, 0.001 mg/L and 0.0001 mg/L. In addition, pure water was used as a control.
After rice seeds were disinfected by using 5% sodium hypochlorite solution treatment, they were rinsed with distilled water until their pH>7, placed into a petri dish in a dark incubator, and cultured by using water at 30° C.±2° C. for 9 days. Then respectively the nine-day-old etiolated seedlings of rice were immersed in the above solutions containing different concentrations of the natural brassinolide analogues or pure water, and cultured at the temperature of 1° C., 2° C., 3° C., 4° C. and 5° C. for 24 hr. The parameters including plant height, area of leaf and weight of root after 3, 6, 9 and 12 days and number of leaf and number of tiller after 12 days were measured.

CC(C)C[C@@H](O)[C@H](O)[C@@H](C)[C@H]1CCC2C3CC(=O)C4C[C@H](O)[C@H](O)C[C@]4(C)C3CC[C@@]21C (some centres unmarked) [BR5]
Height (0.01 mg/l, 3 °C, 9 days): 7.5 cm
Weight of root (0.01 mg/l, 3 °C, 9 days): 2.7 g
Area of leaf (0.01 mg/l, 3 °C, 12 days): 13.2 cm^2
Height (0.01 mg/l, 3 °C, 12 days): 7.9 cm
Number of leaf (0.01 mg/l, 3 °C, 12 days): 3
Number of tiller (0.01 mg/l, 3 °C, 12 days): 2
Weight of root (0.01 mg/l, 3 °C, 12 days): 2.9 g
Area of leaf (0.01 mg/l, 4 °C, 3 days): 10.8 cm^2
Height (0.01 mg/l, 4 °C, 3 days): 7.1 cm
Weight of root (0.01 mg/l, 4 °C, 3 days): 2.5 g
Area of leaf (0.01 mg/l, 4 °C, 6 days): 12.4 cm^2
Height (0.01 mg/l, 4 °C, 6 days): 7.5 cm
Weight of root (0.01 mg/l, 4 °C, 6 days): 2.6 g
Area of leaf (0.01 mg/l, 4 °C, 9 days): 13.1 cm^2
Height (0.01 mg/l, 4 °C, 9 days): 7.6 cm
Weight of root (0.01 mg/l, 4 °C, 9 days): 2.9 g
Area of leaf (0.01 mg/l, 4 °C, 12 days): 13.5 cm^2
Height (0.01 mg/l, 4 °C, 12 days): 7.8 cm
Number of leaf (0.01 mg/l, 4 °C, 12 days): 3
Number of tiller (0.01 mg/l, 4 °C, 12 days): 2
Weight of root (0.01 mg/l, 4 °C, 12 days): 3.0 g
Area of leaf (0.01 mg/l, 5 °C, 3 days): 10.3 cm^2
Height (0.01 mg/l, 5 °C, 3 days): 7.4 cm
Weight of root (0.01 mg/l, 5 °C, 3 days): 2.8 g
Area of leaf (0.01 mg/l, 5 °C, 6 days): 13.1 cm^2
Height (0.01 mg/l, 5 °C, 6 days): 7.4 cm
Weight of root (0.01 mg/l, 5 °C, 6 days): 3.0 g
Area of leaf (0.01 mg/l, 5 °C, 9 days): 16.4 cm^2
Height (0.01 mg/l, 5 °C, 9 days): 8 cm
Weight of root (0.01 mg/l, 5 °C, 9 days): 3.4 g
Area of leaf (0.01 mg/l, 5 °C, 12 days): 17 cm^2
Height (0.01 mg/l, 5 °C, 12 days): 8.2 cm
Number of leaf (0.01 mg/l, 5 °C, 12 days): 4
Number of tiller (0.01 mg/l, 5 °C, 12 days): 3
Weight of root (0.01 mg/l, 5 °C, 12 days): 3.6 g
Area of leaf (0.1 mg/l, 1 °C, 3 days): 10.1 cm^2
Height (0.1 mg/l, 1 °C, 3 days): 7.0 cm
Weight of root (0.1 mg/l, 1 °C, 3 days): 2.8 g
Area of leaf (0.1 mg/l, 1 °C, 6 days): 11 cm^2
Height (0.1 mg/l, 1 °C, 6 days): 7.2 cm
Weight of root (0.1 mg/l, 1 °C, 6 days): 3.0 g
Area of leaf (0.1 mg/l, 1 °C, 9 days): 12 cm^2
Height (0.1 mg/l, 1 °C, 9 days): 7.2 cm
Weight of root (0.1 mg/l, 1 °C, 9 days): 3.4 g
Area of leaf (0.1 mg/l, 1 °C, 12 days): 13.4 cm^2
Height (0.1 mg/l, 1 °C, 12 days): 7.4 cm
Number of leaf (0.1 mg/l, 1 °C, 12 days): 3
Number of tiller (0.1 mg/l, 1 °C, 12 days): 3
Weight of root (0.1 mg/l, 1 °C, 12 days): 3.4 g
Area of leaf (0.1 mg/l, 2 °C, 3 days): 10.4 cm^2
Height (0.1 mg/l, 2 °C, 3 days): 7.1 cm
Weight of root (0.1 mg/l, 2 °C, 3 days): 2.8 g
Area of leaf (0.1 mg/l, 2 °C, 6 days): 11.2 cm^2
Height (0.1 mg/l, 2 °C, 6 days): 7.3 cm
Weight of root (0.1 mg/l, 2 °C, 6 days): 3.0 g
Area of leaf (0.1 mg/l, 2 °C, 9 days): 12.4 cm^2
Height (0.1 mg/l, 2 °C, 9 days): 7.3 cm
Weight of root (0.1 mg/l, 2 °C, 9 days): 3.1 g
Area of leaf (0.1 mg/l, 2 °C, 12 days): 13.6 cm^2
Height (0.1 mg/l, 2 °C, 12 days): 7.4 cm
Number of leaf (0.1 mg/l, 2 °C, 12 days): 3
Number of tiller (0.1 mg/l, 2 °C, 12 days): 3
Weight of root (0.1 mg/l, 2 °C, 12 days): 3.2 g
Area of leaf (0.1 mg/l, 3 °C, 3 days): 10.5 cm^2
Height (0.1 mg/l, 3 °C, 3 days): 7.4 cm
Weight of root (0.1 mg/l, 3 °C, 3 days): 2.5 g
Area of leaf (0.1 mg/l, 3 °C, 6 days): 12 cm^2
Height (0.1 mg/l, 3 °C, 6 days): 7.4 cm
Weight of root (0.1 mg/l, 3 °C, 6 days): 2.7 g
Area of leaf (0.1 mg/l, 3 °C, 9 days): 12.6 cm^2
Height (0.1 mg/l, 3 °C, 9 days): 7.9 cm
Weight of root (0.1 mg/l, 3 °C, 9 days): 2.7 g
Area of leaf (0.1 mg/l, 3 °C, 12 days): 13.4 cm^2
Height (0.1 mg/l, 3 °C, 12 days): 7.9 cm
Number of leaf (0.1 mg/l, 3 °C, 12 days): 3
Number of tiller (0.1 mg/l, 3 °C, 12 days): 2
Weight of root (0.1 mg/l, 3 °C, 12 days): 2.9 g
Area of leaf (0.1 mg/l, 4 °C, 3 days): 10.8 cm^2
Height (0.1 mg/l, 4 °C, 3 days): 7.5 cm
Weight of root (0.1 mg/l, 4 °C, 3 days): 2.5 g
Area of leaf (0.1 mg/l, 4 °C, 6 days): 12.1 cm^2
Height (0.1 mg/l, 4 °C, 6 days): 7.5 cm
Weight of root (0.1 mg/l, 4 °C, 6 days): 2.7 g
Area of leaf (0.1 mg/l, 4 °C, 9 days): 13.2 cm^2
Height (0.1 mg/l, 4 °C, 9 days): 8 cm
Weight of root (0.1 mg/l, 4 °C, 9 days): 2.9 g
Area of leaf (0.1 mg/l, 4 °C, 12 days): 13.8 cm^2
Height (0.1 mg/l, 4 °C, 12 days): 8 cm
Number of leaf (0.1 mg/l, 4 °C, 12 days): 3
Number of tiller (0.1 mg/l, 4 °C, 12 days): 2
Weight of root (0.1 mg/l, 4 °C, 12 days): 3 g
Area of leaf (0.1 mg/l, 5 °C, 3 days): 11 cm^2
Height (0.1 mg/l, 5 °C, 3 days): 7.5 cm
Weight of root (0.1 mg/l, 5 °C, 3 days): 2.9 g
Area of leaf (0.1 mg/l, 5 °C, 6 days): 12.9 cm^2
Height (0.1 mg/l, 5 °C, 6 days): 7.6 cm
Weight of root (0.1 mg/l, 5 °C, 6 days): 3.2 g
Area of leaf (0.1 mg/l, 5 °C, 9 days): 16.8 cm^2
Height (0.1 mg/l, 5 °C, 9 days): 8 cm
Weight of root (0.1 mg/l, 5 °C, 9 days): 3.5 g
Area of leaf (0.1 mg/l, 5 °C, 12 days): 19 cm^2
Height (0.1 mg/l, 5 °C, 12 days): 8.3 cm
Number of leaf (0.1 mg/l, 5 °C, 12 days): 3
Number of tiller (0.1 mg/l, 5 °C, 12 days): 2
Weight of root (0.1 mg/l, 5 °C, 12 days): 4.1 g
Area of leaf (1 mg/l, 1 °C, 3 days): 10 cm^2
Height (1 mg/l, 1 °C, 3 days): 7.0 cm
Weight of root (1 mg/l, 1 °C, 3 days): 2.6 g
Area of leaf (1 mg/l, 1 °C, 6 days): 11.2 cm^2
Height (1 mg/l, 1 °C, 6 days): 7.3 cm
Weight of root (1 mg/l, 1 °C, 6 days): 3.1 g
Area of leaf (1 mg/l, 1 °C, 9 days): 12.4 cm^2
Height (1 mg/l, 1 °C, 9 days): 7.3 cm
Weight of root (1 mg/l, 1 °C, 9 days): 3.1 g
Area of leaf (1 mg/l, 1 °C, 12 days): 13 cm^2
Height (1 mg/l, 1 °C, 12 days): 7.9 cm
Number of leaf (1 mg/l, 1 °C, 12 days): 3
Number of tiller (1 mg/l, 1 °C, 12 days): 3
Weight of root (1 mg/l, 1 °C, 12 days): 3.7 g
Area of leaf (1 mg/l, 2 °C, 3 days): 10.2 cm^2
Height (1 mg/l, 2 °C, 3 days): 7.1 cm
Weight of root (1 mg/l, 2 °C, 3 days): 2.6 g
Area of leaf (1 mg/l, 2 °C, 6 days): 11.7 cm^2
Height (1 mg/l, 2 °C, 6 days): 7.2 cm
Weight of root (1 mg/l, 2 °C, 6 days): 3.0 g
Area of leaf (1 mg/l, 2 °C, 9 days): 12.6 cm^2
Height (1 mg/l, 2 °C, 9 days): 7.2 cm
Weight of root (1 mg/l, 2 °C, 9 days): 3.2 g
Area of leaf (1 mg/l, 2 °C, 12 days): 12.8 cm^2
Height (1 mg/l, 2 °C, 12 days): 7.8 cm
Number of leaf (1 mg/l, 2 °C, 12 days): 3
Number of tiller (1 mg/l, 2 °C, 12 days): 3
Weight of root (1 mg/l, 2 °C, 12 days): 3.7 g
Area of leaf (1 mg/l, 3 °C, 3 days): 10.4 cm^2
Height (1 mg/l, 3 °C, 3 days): 7.2 cm
Weight of root (1 mg/l, 3 °C, 3 days): 2.5 g
Area of leaf (1 mg/l, 3 °C, 6 days): 12 cm^2
Height (1 mg/l, 3 °C, 6 days): 7.5 cm
Weight of root (1 mg/l, 3 °C, 6 days): 2.6 g
Area of leaf (1 mg/l, 3 °C, 9 days): 12.1 cm^2
Height (1 mg/l, 3 °C, 9 days): 7.6 cm
Weight of root (1 mg/l, 3 °C, 9 days): 2.8 g
Area of leaf (1 mg/l, 3 °C, 12 days): 13 cm^2
Height (1 mg/l, 3 °C, 12 days): 8.1 cm
Number of leaf (1 mg/l, 3 °C, 12 days): 3
Number of tiller (1 mg/l, 3 °C, 12 days): 2
Weight of root (1 mg/l, 3 °C, 12 days): 2.9 g
Area of leaf (1 mg/l, 4 °C, 3 days): 10.9 cm^2
Height (1 mg/l, 4 °C, 3 days): 7.2 cm
Weight of root (1 mg/l, 4 °C, 3 days): 2.5 g
Area of leaf (1 mg/l, 4 °C, 6 days): 12.6 cm^2
Height (1 mg/l, 4 °C, 6 days): 7.5 cm
Weight of root (1 mg/l, 4 °C, 6 days): 2.7 g
Area of leaf (1 mg/l, 4 °C, 9 days): 13.2 cm^2
Height (1 mg/l, 4 °C, 9 days): 7.8 cm
Weight of root (1 mg/l, 4 °C, 9 days): 3.1 g
Area of leaf (1 mg/l, 4 °C, 12 days): 13.4 cm^2
Height (1 mg/l, 4 °C, 12 days): 8.2 cm
Number of leaf (1 mg/l, 4 °C, 12 days): 3
Number of tiller (1 mg/l, 4 °C, 12 days): 2
Weight of root (1 mg/l, 4 °C, 12 days): 3.2 g
Area of leaf (1 mg/l, 5 °C, 3 days): 11.1 cm^2
Height (1 mg/l, 5 °C, 3 days): 7.3 cm
Weight of root (1 mg/l, 5 °C, 3 days): 2.9 g
Area of leaf (1 mg/l, 5 °C, 6 days): 13.1 cm^2
Height (1 mg/l, 5 °C, 6 days): 7.7 cm
Weight of root (1 mg/l, 5 °C, 6 days): 3.5 g
Area of leaf (1 mg/l, 5 °C, 9 days): 18 cm^2
Height (1 mg/l, 5 °C, 9 days): 8 cm
Weight of root (1 mg/l, 5 °C, 9 days): 3.6 g
Area of leaf (1 mg/l, 5 °C, 12 days): 20 cm^2
Height (1 mg/l, 5 °C, 12 days): 8.4 cm
Number of leaf (1 mg/l, 5 °C, 12 days): 3
Number of tiller (1 mg/l, 5 °C, 12 days): 2
Weight of root (1 mg/l, 5 °C, 12 days): 4.5 g
Effects on resistance to low temperature compared among analogues (in vivo): more than those of BR2, BR3 and BR4
